pIC50: −log10 of the molar value.

This assay addresses T1, Aromatase (Homo sapiens, UniProt P11511).
T1 sequence (P11511 whole entry): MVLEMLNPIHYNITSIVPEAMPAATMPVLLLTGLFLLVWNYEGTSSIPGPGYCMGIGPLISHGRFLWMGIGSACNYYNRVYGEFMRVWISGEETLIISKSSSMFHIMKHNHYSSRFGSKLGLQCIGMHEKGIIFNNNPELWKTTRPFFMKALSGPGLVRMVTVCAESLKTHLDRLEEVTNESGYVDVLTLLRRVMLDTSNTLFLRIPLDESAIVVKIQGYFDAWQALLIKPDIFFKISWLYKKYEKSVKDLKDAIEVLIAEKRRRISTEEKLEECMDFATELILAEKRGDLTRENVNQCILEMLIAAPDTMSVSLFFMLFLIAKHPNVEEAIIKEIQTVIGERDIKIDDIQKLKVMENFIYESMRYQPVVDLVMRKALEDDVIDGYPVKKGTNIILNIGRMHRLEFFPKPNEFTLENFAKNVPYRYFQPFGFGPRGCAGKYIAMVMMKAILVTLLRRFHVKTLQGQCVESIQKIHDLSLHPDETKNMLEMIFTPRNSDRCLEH
The experiment in a line: Inhibition of aromatase in human placental microsomes assessed as inhibition of aromatization of [1,2,6,7-3H] androstenedione by flow scintillation analysis. Details: species or system Placenta.
In general, pIC50 refers to the IC50 on a negative log10 scale, so that one unit is a factor of ten. In the case of `N#Cc1ccc(C2CC(n3ccnc3)c3ccc4ccccc4c3O2)cc1` (cis isomer), the pIC50 was 6.27.
As for `Oc1ccc(C2CC(n3ccnc3)c3ccc4ccccc4c3O2)cc1` (mixture of isomers), the pIC50 is 7.49.
`N#Cc1ccc(C2CC(n3ccnc3)c3ccc4ccccc4c3O2)cc1` (mixture of isomers): the pIC50 is 7.11.
As to `N#Cc1ccc(C2CC(n3ccnc3)c3ccc4ccccc4c3O2)cc1` (stereo in doubt), the negative-log IC50 (pIC50) was 7.47.
On to `c1ccc(C2CC(n3ccnc3)c3ccc4ccccc4c3O2)cc1` (trans isomer), for which the pIC50 was 7.44.

Values taken from ChEMBL document CHEMBL1781966, “Lead optimization of 4-imidazolylflavans: new promising aromatase inhibitors” (Eur J Med Chem, 2011).
